The supplement of paper PMC10883282
± gives the standard deviation of the averaged measurements.

What was measured:
Assay in all cases: relative viability vs DMSO control (72 h) (fraction); higher = more viable cells
A204 = test system: A204
Outline: (§1)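 Percent growth from ATPLite readings, averaged over up to triplicate wells, was used as relative viability. Sarcoma cell lines were seeded into 384-well plates for 80–90% confluence, dosed after 24 h, and kept 72 h at 37 °C, 5% CO2. Data were rescaled to a range where 1 is full and 0 is none.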

G401 = test system: G401
Outline: as §1

SYO-1 = test system: SYO-1
Outline: as §1

SW982 = test system: SW982
Outline: as §1

SW1353 = test system: SW1353
Outline: as §1

HT1080 = test system: HT1080
Outline: as §1

KHOS-NP = test system: KHOS-NP
Outline: as §1

SW684 = test system: SW684
Outline: as §1

RD-ES = test system: RD-ES
Outline: as §1

KHOS-240S = test system: KHOS-240S
Outline: as §1

SK-ES-1 = test system: SK-ES-1
Outline: as §1

SW872 = test system: SW872
Outline: as §1

## CN(C)C[C@@H]1CCn2cc(c3ccccc32)C2=C(C(=O)NC2=O)c2cn(c3ccccc23)CCO1 [Ruboxistaurin]
A204; 0.00017 µM
  relative viability: 1.08 ± 0.028
A204; 0.00051 µM
  relative viability: 1.07 ± 0.031
A204; 0.00152 µM
  relative viability: 1.08 ± 0.035
A204; 0.00457 µM
  relative viability: 1.06 ± 0.021
A204; 0.01372 µM
  relative viability: 1.06 ± 0.076
A204; 0.04115 µM
  relative viability: 1.08 ± 0.017
A204; 0.1235 µM
  relative viability: 1.03 ± 0.031
A204; 0.3704 µM
  relative viability: 1.05 ± 0.013
A204; 1.111 µM
  relative viability: 0.881 ± 0.047
A204; 3.333 µM
  relative viability: 0.808 ± 0.02
A204; 10 µM
  relative viability: 0.0478 ± 0.01
G401; 0.00017 µM
  relative viability: 1.03 ± 0.044
G401; 0.00051 µM
  relative viability: 1.01 ± 0.012
G401; 0.00152 µM
  relative viability: 0.988 ± 0.028
G401; 0.00457 µM
  relative viability: 1.01 ± 0.03
G401; 0.01372 µM
  relative viability: 1.02 ± 0.025
G401; 0.04115 µM
  relative viability: 0.961 ± 0.037
G401; 0.1235 µM
  relative viability: 1.02 ± 0.058
G401; 0.3704 µM
  relative viability: 1.01 ± 0.029
G401; 1.111 µM
  relative viability: 0.958 ± 0.025
G401; 3.333 µM
  relative viability: 0.938 ± 0.032
G401; 10 µM
  relative viability: 0.0283 ± 0.0042
SYO-1; 0.00017 µM
  relative viability: 0.962 ± 0.046
SYO-1; 0.00051 µM
  relative viability: 0.9554 ± 0.0086
SYO-1; 0.00152 µM
  relative viability: 0.962 ± 0.015
SYO-1; 0.00457 µM
  relative viability: 0.941 ± 0.045
SYO-1; 0.01372 µM
  relative viability: 0.931 ± 0.035
SYO-1; 0.04115 µM
  relative viability: 0.933 ± 0.034
SYO-1; 0.1235 µM
  relative viability: 0.899 ± 0.059
SYO-1; 0.3704 µM
  relative viability: 0.849 ± 0.087
SYO-1; 1.111 µM
  relative viability: 0.79 ± 0.038
SYO-1; 3.333 µM
  relative viability: 0.347 ± 0.036
SYO-1; 10 µM
  relative viability: -0.0266 ± 0.0088
SW982; 0.00017 µM
  relative viability: 1.03 ± 0.031
SW982; 0.00051 µM
  relative viability: 1.03 ± 0.047
SW982; 0.00152 µM
  relative viability: 1.04 ± 0.05
SW982; 0.00457 µM
  relative viability: 1.03 ± 0.027
SW982; 0.01372 µM
  relative viability: 1.05 ± 0.012
SW982; 0.04115 µM
  relative viability: 1.04 ± 0.038
SW982; 0.1235 µM
  relative viability: 1.04 ± 0.033
SW982; 0.3704 µM
  relative viability: 1.03 ± 0.027
SW982; 1.111 µM
  relative viability: 0.949 ± 0.015
SW982; 3.333 µM
  relative viability: 0.846 ± 0.075
SW982; 10 µM
  relative viability: 0.349 ± 0.066
SW1353; 0.00017 µM
  relative viability: 1.02 ± 0.055
SW1353; 0.00051 µM
  relative viability: 1.01 ± 0.014
SW1353; 0.00152 µM
  relative viability: 0.983 ± 0.015
SW1353; 0.00457 µM
  relative viability: 0.99 ± 0.029
SW1353; 0.01372 µM
  relative viability: 0.975 ± 0.014
SW1353; 0.04115 µM
  relative viability: 0.994 ± 0.022
SW1353; 0.1235 µM
  relative viability: 0.961 ± 0.063
SW1353; 0.3704 µM
  relative viability: 0.977 ± 0.064
SW1353; 1.111 µM
  relative viability: 0.894 ± 0.023
SW1353; 3.333 µM
  relative viability: 0.827 ± 0.018
SW1353; 10 µM
  relative viability: 0.252 ± 0.036
HT1080; 0.00017 µM
  relative viability: 1.06 ± 0.042
HT1080; 0.00051 µM
  relative viability: 1.1 ± 0.015
HT1080; 0.00152 µM
  relative viability: 1.05 ± 0.034
HT1080; 0.00457 µM
  relative viability: 1.04 ± 0.024
HT1080; 0.01372 µM
  relative viability: 1.05 ± 0.025
HT1080; 0.04115 µM
  relative viability: 1.06 ± 0.012
HT1080; 0.1235 µM
  relative viability: 1.08 ± 0.039
HT1080; 0.3704 µM
  relative viability: 1.03 ± 0.034
HT1080; 1.111 µM
  relative viability: 1.08 ± 0.017
HT1080; 3.333 µM
  relative viability: 1.12 ± 0.024
HT1080; 10 µM
  relative viability: 0.904 ± 0.041
KHOS-NP; 0.00017 µM
  relative viability: 1.09 ± 0.043
KHOS-NP; 0.00051 µM
  relative viability: 1.09 ± 0.029
KHOS-NP; 0.00152 µM
  relative viability: 1.06 ± 0.016
KHOS-NP; 0.00457 µM
  relative viability: 1.07 ± 0.036
KHOS-NP; 0.01372 µM
  relative viability: 1.06 ± 0.016
KHOS-NP; 0.04115 µM
  relative viability: 1.08 ± 0.027
KHOS-NP; 0.1235 µM
  relative viability: 1.073 ± 0.0097
KHOS-NP; 0.3704 µM
  relative viability: 1.093 ± 0.01
KHOS-NP; 1.111 µM
  relative viability: 1.1 ± 0.012
KHOS-NP; 3.333 µM
  relative viability: 1.073 ± 0.0091
KHOS-NP; 10 µM
  relative viability: 1.045 ± 0.0032
SW684; 0.00017 µM
  relative viability: 1.12 ± 0.04
SW684; 0.00051 µM
  relative viability: 1.157 ± 0.0021
SW684; 0.00152 µM
  relative viability: 1.158 ± 0.0044
SW684; 0.00457 µM
  relative viability: 1.17 ± 0.024
SW684; 0.01372 µM
  relative viability: 1.16 ± 0.051
SW684; 0.04115 µM
  relative viability: 1.11 ± 0.072
SW684; 0.1235 µM
  relative viability: 1.15 ± 0.051
SW684; 0.3704 µM
  relative viability: 1.16 ± 0.046
SW684; 1.111 µM
  relative viability: 1.14 ± 0.037
SW684; 3.333 µM
  relative viability: 1.15 ± 0.016
SW684; 10 µM
  relative viability: 0.857 ± 0.049
RD-ES; 0.00017 µM
  relative viability: 0.981 ± 0.048
RD-ES; 0.00051 µM
  relative viability: 0.993 ± 0.053
RD-ES; 0.00152 µM
  relative viability: 0.9893 ± 0.0053
RD-ES; 0.00457 µM
  relative viability: 0.988 ± 0.022
RD-ES; 0.01372 µM
  relative viability: 0.952 ± 0.026
RD-ES; 0.04115 µM
  relative viability: 0.978 ± 0.023
RD-ES; 0.1235 µM
  relative viability: 0.956 ± 0.0096
RD-ES; 0.3704 µM
  relative viability: 0.993 ± 0.014
RD-ES; 1.111 µM
  relative viability: 0.96 ± 0.016
RD-ES; 3.333 µM
  relative viability: 0.862 ± 0.024
RD-ES; 10 µM
  relative viability: 0.0404 ± 0.0069
KHOS-240S; 0.00017 µM
  relative viability: 1.04 ± 0.0082
KHOS-240S; 0.00051 µM
  relative viability: 1.05 ± 0.026
KHOS-240S; 0.00152 µM
  relative viability: 1.03 ± 0.018
KHOS-240S; 0.00457 µM
  relative viability: 1.04 ± 0.029
KHOS-240S; 0.01372 µM
  relative viability: 1.02 ± 0.017
KHOS-240S; 0.04115 µM
  relative viability: 1.02 ± 0.027
KHOS-240S; 0.1235 µM
  relative viability: 1.03 ± 0.021
KHOS-240S; 0.3704 µM
  relative viability: 1.014 ± 0.01
KHOS-240S; 1.111 µM
  relative viability: 1.04 ± 0.049
KHOS-240S; 3.333 µM
  relative viability: 1.03 ± 0.025
KHOS-240S; 10 µM
  relative viability: 0.715 ± 0.041
SK-ES-1; 0.00017 µM
  relative viability: 1.03 ± 0.088
SK-ES-1; 0.00051 µM
  relative viability: 1.06 ± 0.023
SK-ES-1; 0.00152 µM
  relative viability: 1.07 ± 0.05
SK-ES-1; 0.00457 µM
  relative viability: 1.08 ± 0.037
SK-ES-1; 0.01372 µM
  relative viability: 1.07 ± 0.053
SK-ES-1; 0.04115 µM
  relative viability: 1.02 ± 0.056
SK-ES-1; 0.1235 µM
  relative viability: 1.01 ± 0.069
SK-ES-1; 0.3704 µM
  relative viability: 0.963 ± 0.042
SK-ES-1; 1.111 µM
  relative viability: 0.869 ± 0.031
SK-ES-1; 3.333 µM
  relative viability: 0.74 ± 0.008
SK-ES-1; 10 µM
  relative viability: 0.421 ± 0.016
SW872; 0.00017 µM
  relative viability: 1 ± 0.033
SW872; 0.00051 µM
  relative viability: 1.04 ± 0.029
SW872; 0.00152 µM
  relative viability: 1.02 ± 0.036
SW872; 0.00457 µM
  relative viability: 1.06 ± 0.032
SW872; 0.01372 µM
  relative viability: 0.989 ± 0.027
SW872; 0.04115 µM
  relative viability: 1.04 ± 0.041
SW872; 0.1235 µM
  relative viability: 1.01 ± 0.018
SW872; 0.3704 µM
  relative viability: 1.02 ± 0.011
SW872; 1.111 µM
  relative viability: 0.9094 ± 0.005
SW872; 3.333 µM
  relative viability: 0.846 ± 0.057
SW872; 10 µM
  relative viability: 0.599 ± 0.064
